ChEMBL document CHEMBL1649203, “Pharmacokinetics and safety of famciclovir in children with herpes simplex or varicella-zoster virus infection” (Antimicrob Agents Chemother, 2009)

Columns and labels:
Homo sapiens [1] = test: Toxicity in HSV-infected 1 to <2 years aged pediatric patient assessed as incidence of nausea at 30.9 mg/kg, po bid; format: organism-based; design: dose 30.9 mg/kg, route oral; settings: in vivo
Homo sapiens [2] = test: Toxicity in VZV-infected 2 to <6 years aged pediatric patient assessed as incidence of nausea at 40.6 mg/kg, po tid; format: organism-based; design: dose 40.6 mg/kg, route oral; settings: in vivo
Homo sapiens [3] = test: Toxicity in VZV-infected 6 to <=12 years aged pediatric patient assessed as at least one adverse event at 35.5 mg/kg, po tid; format: organism-based; design: dose 35.5 mg/kg, route oral; settings: in vivo
Homo sapiens [4] = test: Toxicity in VZV-infected 2 to <6 years aged pediatric patient assessed as at least one adverse event at 40.6 mg/kg, po tid; format: organism-based; design: dose 40.6 mg/kg, route oral; settings: in vivo
Homo sapiens [5] = test: AUC (0 to infinity) in 2 to <6 years aged pediatric patient administered as single dose; format: ADME, organism-based, Plasma; design: time infinity; settings: in vivo
[6] = Tmax in 2 to <6 years aged pediatric patient administered as single dose; format: ADME, organism-based; settings: human, in vivo
Homo sapiens [7] = test: Toxicity in HSV-infected 6 to <=12 years aged pediatric patient assessed as incidence of headache at 23.5 mg/kg, po bid; format: organism-based; design: dose 23.5 mg/kg, route oral; settings: in vivo
[8] = Half life in 1 to <2 years aged pediatric patient administered as single dose; format: ADME, organism-based; settings: human, in vivo
[9] = Apparent oral clearance in 2 to <6 years aged pediatric patient administered as single dose; format: ADME, organism-based; settings: human, in vivo
Homo sapiens [10] = test: Toxicity in VZV-infected 6 to <=12 years aged pediatric patient assessed as incidence of cellulitis at 35.5 mg/kg, po tid; format: organism-based; design: dose 35.5 mg/kg, route oral; settings: in vivo
[11] = Tmax in 6 to <=12 years aged pediatric patient administered as single dose; format: ADME, organism-based; settings: human, in vivo
Homo sapiens [12] = test: Toxicity in orally dosed HSV-infected patient assessed as at least one adverse event administered as bid; format: organism-based; settings: in vivo, po
Homo sapiens [13] = test: Toxicity in VZV-infected 2 to <6 years aged pediatric patient assessed as incidence of diarrhea at 40.6 mg/kg, po tid; format: organism-based; design: dose 40.6 mg/kg, route oral; settings: in vivo
Homo sapiens [14] = test: Toxicity in VZV-infected 2 to <6 years aged pediatric patient assessed as incidence of abdominal pain at 40.6 mg/kg, po tid; format: organism-based, Abdomen; design: dose 40.6 mg/kg, route oral; settings: in vivo
Homo sapiens [15] = test: Toxicity in orally dosed VZV-infected patient assessed as pyrexia administered as tid; format: organism-based; settings: in vivo, po
[16] = Half life in 2 to <6 years aged pediatric patient administered as single dose; format: ADME, organism-based; settings: human, in vivo
Homo sapiens [17] = test: Toxicity in orally dosed VZV-infected patient assessed as incidence of headache administered as tid; format: organism-based; settings: in vivo, po
[18] = Apparent oral clearance in 6 to <=12 years aged pediatric patient administered as single dose; format: ADME, organism-based; settings: human, in vivo
Homo sapiens [19] = test: Toxicity in VZV-infected 6 to <=12 years aged pediatric patient assessed as incidence of nausea at 35.5 mg/kg, po tid; format: organism-based; design: dose 35.5 mg/kg, route oral; settings: in vivo
Homo sapiens [20] = test: Toxicity in orally dosed HSV-infected patient assessed as incidence of headache administered as bid; format: organism-based; settings: in vivo, po
Homo sapiens [21] = test: Toxicity in HSV-infected 1 to <2 years aged pediatric patient assessed as incidence of diarrhea at 30.9 mg/kg, po bid; format: organism-based; design: dose 30.9 mg/kg, route oral; settings: in vivo
Homo sapiens [22] = test: Toxicity in orally dosed VZV-infected patient assessed as incidence of cellulitis administered as tid; format: organism-based; settings: in vivo, po
Homo sapiens [23] = test: Toxicity in VZV-infected 6 to <=12 years aged pediatric patient assessed as incidence of pruritus at 35.5 mg/kg, po tid; format: organism-based; design: dose 35.5 mg/kg, route oral; settings: in vivo
Homo sapiens [24] = test: Toxicity in orally dosed VZV-infected patient assessed as incidence of vomiting administered as tid; format: organism-based; settings: in vivo, po
Homo sapiens [25] = test: AUC (0 to last) in 1 to <2 years aged pediatric patient administered as single dose; format: ADME, organism-based, Plasma; design: time 0 - last; settings: in vivo
Homo sapiens [26] = test: Toxicity in VZV-infected 2 to <6 years aged pediatric patient assessed as incidence of cellulitis at 40.6 mg/kg, po tid; format: organism-based; design: dose 40.6 mg/kg, route oral; settings: in vivo
[27] = Tmax in 1 to <2 years aged pediatric patient administered as single dose; format: ADME, organism-based; settings: human, in vivo
Homo sapiens [28] = test: Toxicity in VZV-infected 1 to <2 years aged pediatric patient assessed as incidence of vomiting at 40.8 mg/kg, po tid; format: organism-based; design: dose 40.8 mg/kg, route oral; settings: in vivo
Homo sapiens [29] = test: Toxicity in orally dosed HSV-infected patient assessed as pyrexia administered as bid; format: organism-based; settings: in vivo, po
Homo sapiens [30] = test: AUC (0 to infinity) in 1 to <2 years aged pediatric patient administered as single dose; format: ADME, organism-based, Plasma; design: time infinity; settings: in vivo
Homo sapiens [31] = test: Toxicity in orally dosed VZV-infected patient assessed as incidence of diarrhea administered as tid; format: organism-based; settings: in vivo, po
Homo sapiens [32] = test: Toxicity in VZV-infected 2 to <6 years aged pediatric patient assessed as incidence of vomiting at 40.6 mg/kg, po tid; format: organism-based; design: dose 40.6 mg/kg, route oral; settings: in vivo
Homo sapiens [33] = test: Toxicity in orally dosed HSV-infected patient assessed as incidence of nausea administered as bid; format: organism-based; settings: in vivo, po
Homo sapiens [34] = test: Toxicity in orally dosed HSV-infected patient assessed as incidence of diarrhea administered as bid; format: organism-based; settings: in vivo, po
Homo sapiens [35] = test: Toxicity in VZV-infected 1 to <2 years aged pediatric patient assessed as incidence of abdominal pain at 40.8 mg/kg, po tid; format: organism-based, Abdomen; design: dose 40.8 mg/kg, route oral; settings: in vivo
Homo sapiens [36] = test: Toxicity in VZV-infected 6 to <=12 years aged pediatric patient assessed as incidence of headache at 35.5 mg/kg, po tid; format: organism-based; design: dose 35.5 mg/kg, route oral; settings: in vivo
[37] = Cmax in 6 to <=12 years aged pediatric patient administered as single dose; format: ADME, organism-based; settings: human, in vivo
Homo sapiens [38] = test: Toxicity in VZV-infected 1 to <2 years aged pediatric patient assessed as incidence of cellulitis at 40.8 mg/kg, po tid; format: organism-based; design: dose 40.8 mg/kg, route oral; settings: in vivo
Homo sapiens [39] = test: Toxicity in orally dosed VZV-infected patient assessed as incidence of nausea administered as tid; format: organism-based; settings: in vivo, po
Homo sapiens [40] = test: Toxicity in HSV-infected 6 to <=12 years aged pediatric patient assessed as incidence of abdominal pain at 23.5 mg/kg, po bid; format: organism-based, Abdomen; design: dose 23.5 mg/kg, route oral; settings: in vivo
Homo sapiens [41] = test: Toxicity in HSV-infected 6 to <=12 years aged pediatric patient assessed as incidence of diarrhea at 23.5 mg/kg, po bid; format: organism-based; design: dose 23.5 mg/kg, route oral; settings: in vivo
Homo sapiens [42] = test: Toxicity in VZV-infected 1 to <2 years aged pediatric patient assessed as pyrexia at 40.8 mg/kg, po tid; format: organism-based; design: dose 40.8 mg/kg, route oral; settings: in vivo
Homo sapiens [43] = test: Toxicity in HSV-infected 6 to <=12 years aged pediatric patient assessed as pyrexia at 23.5 mg/kg, po bid; format: organism-based; design: dose 23.5 mg/kg, route oral; settings: in vivo

SMILES: Nc1nc2c(ncn2CCC(CO)CO)c(=O)[nH]1 [PENCICLOVIR]
- Activity (Homo sapiens [1]): 7.7%
- Activity (Homo sapiens [2]): 5.3%
- Activity (Homo sapiens [3]): 43.8%
- Activity (Homo sapiens [4]): 52.6%
- AUC (Homo sapiens [5]): 7.23 ug/hr.ml
- Tmax [6]: 1.07 h
- Activity (Homo sapiens [7]): 22.2%
- half-life [8]: 72 min
- CL/F [9]: 410 mL/min
- Activity (Homo sapiens [10]): 6.3%
- Tmax [11]: 1 h
- Activity (Homo sapiens [12]): 55.3%
- Activity (Homo sapiens [13]): 5.3%
- Activity (Homo sapiens [14]): 0%
- Activity (Homo sapiens [15]): 7.5%
- half-life [16]: 76.8 min
- Activity (Homo sapiens [17]): 3.8%
- CL/F [18]: 578 mL/min
- Activity (Homo sapiens [19]): 6.3%
- Activity (Homo sapiens [20]): 8.5%
- Activity (Homo sapiens [21]): 7.7%
- Activity (Homo sapiens [22]): 3.8%
- Activity (Homo sapiens [23]): 6.3%
- Activity (Homo sapiens [24]): 9.4%
- AUC (Homo sapiens [25]): 6.52 ug/hr.ml
- Activity (Homo sapiens [26]): 5.3%
- Tmax [27]: 1.08 h
- Activity (Homo sapiens [28]): 27.8%
- Activity (Homo sapiens [29]): 4.3%
- AUC (Homo sapiens [30]): 7.16 ug/hr.ml
- Activity (Homo sapiens [31]): 11.3%
- Activity (Homo sapiens [32]): 0%
- Activity (Homo sapiens [33]): 6.4%
- Activity (Homo sapiens [34]): 8.5%
- Activity (Homo sapiens [35]): 0%
- Activity (Homo sapiens [36]): 12.5%
- Cmax [37]: 3410 ng/mL
- Activity (Homo sapiens [38]): 0%
- Activity (Homo sapiens [39]): 3.8%
- Activity (Homo sapiens [40]): 5.6%
- Activity (Homo sapiens [41]): 11.1%
- Activity (Homo sapiens [42]): 11.1%
- Activity (Homo sapiens [43]): 0%
